ChEMBL document CHEMBL3507680, “University of Dundee, Gates Library screen for HepG2 cell viability”

Experiment: Human HepG2 cell viability assay in 384 well format
Format: toxicity, cell-based
Set-up: dose 125 nL, time 70.5 hour; cytotoxicity at 70.5 h: concentration not given beside the values
Conditions: HepG2 cells, read-out: Inhibition

Row | SMILES | cytotoxicity at 70.5 h [%]
1 | COc1cccc2sc(N(C)CC(=O)NCc3nc(C)no3)nc12 | -3.58
2 | CC(C)(C)C(=O)NCc1cnn2ccccc12 | -6.45
3 | CC(C)(C)NC(=O)NCc1cnn2ccccc12 | -9.3
4 | Cc1nccn1-c1ccc(=O)n(CCNC(=O)Cc2ccccc2)n1 | -12.3
5 | Cc1ccc(S(=O)(=O)Nc2ccc(-n3nnn(C)c3=O)cc2)cc1 | 1.6
6 | Cn1nnn(-c2ccc(NS(=O)(=O)c3ccc(F)c(Cl)c3)cc2)c1=O | -2.9
7 | O=C(c1nnn(-c2ccccc2)n1)N(CCO)CCO | -5.32
8 | Cc1ccc(-n2nnc(C(=O)NCC3CCCCC3)n2)cc1 | -7.05
9 | COCC(C)NC(=O)c1nnn(-c2ccc(OC)cc2)n1 (stereo unspecified) | -9.57
10 | O=C(c1nnn(-c2ccc(F)cc2)n1)N1CCC(O)CC1 | 2.17
11 | COCC(C)NC(=O)c1nnn(-c2ccc(F)cc2)n1 (stereo unspecified) | -5.45
12 | O=C(c1nnn(-c2ccc(Cl)cc2)n1)N(CCO)Cc1ccccc1 | -1.6
13 | O=C(NC1(c2nc(C3CC3)no2)CCCCC1)c1ccncc1 | 5.56
14 | COCCNC(=O)NC1(c2nc(-c3ccncc3)no2)CCCCC1 | 5.97
15 | O=C(Cn1cccn1)N1CCC(c2nnc(C(F)(F)F)o2)CC1 | 30.9
16 | CC(=O)N1CCC(c2nn(C)c(=O)n2-c2ccccc2)CC1 | -1.32
17 | Cn1c(C(F)(F)F)nn(CCNC(=O)CCc2ccccc2)c1=O | 22.1
18 | Cn1c(C(F)(F)F)nn(CCNC(=O)c2nc3ccccc3s2)c1=O | -8.57
19 | CCS(=O)(=O)N1CCC(c2nnc(C(F)(F)F)o2)CC1 | 5.3
20 | CNC(=O)CN1CCC(c2nn(C)c(=O)n2-c2ccccc2)CC1 | -4.2
21 | O=C1COc2ccc(Cl)cc2CN1CC1CC1 | -12
22 | O=C1COc2ccc(Br)cc2CN1CC1CC1 | -16.7
23 | O=C(c1nnn(-c2ccccc2Cl)c1-c1ccccn1)N1CCSCC1 | -2.09

Row | SMILES | cytotoxicity at 70.5 h [%]
24 | O=C(Cn1ccc2ccccc21)Nc1cc(N2CCOCC2)ncn1 | 14.8
25 | O=C(Cc1c(F)cccc1Cl)Nc1cc(N2CCOCC2)ncn1 | 9.04
26 | Cc1nc(C)c(C(=O)Nc2cc(N3CCC(C)CC3)ncn2)s1 | 0.183
27 | COc1ccc(F)cc1S(=O)(=O)NCCn1cnc(C)cc1=O | -12.5
28 | Cn1nc(N2CCCC(C(=O)Nc3nccs3)C2)ccc1=O (stereo unspecified) | 18
29 | Cc1cc(C(=O)N(CC(F)(F)F)C2CCOCC2)c(C)o1 | -7.23
30 | O=C(C1=COCCO1)N1CC(Oc2nc3c(Cl)cccc3s2)C1 | 30.4
31 | CCOCC(=O)NCCc1nc(C)cc(C(F)(F)F)n1 | -10.8
32 | O=C(CN1C(=O)CCC1=O)NCCc1nc(C2CC2)cc(C(F)(F)F)n1 | 31.4
33 | O=C1CCSCC(C(=O)N2CCCCC2)N1 (stereo unspecified) | -0.797
34 | CS(=O)(=O)N1CCN(C(=O)C2CSCCC(=O)N2)CC1 (stereo unspecified) | 19.7
35 | Cc1nnc(CNC(=O)C2CSCCC(=O)N2)o1 (stereo unspecified) | 45.2
36 | CC(NC(=O)C1CN(c2ncnc3c2nnn3C)C1)c1ccccc1 (stereo unspecified) | -16.6
37 | O=C(O)CC(CC(=O)NCCc1ccsc1)c1cccs1 (stereo unspecified) | -13.1
38 | O=C(CCn1ccc(=O)[nH]c1=O)N1CCC(Oc2ccccn2)CC1 | -4.88
39 | Cc1ccc(S(=O)(=O)N2CCC(Oc3ccccn3)CC2)c(C)c1 | -19.6
40 | CCOC(=O)CCC(=O)N1CCC(Oc2ncccc2Cl)CC1 | -4.05
41 | O=C(c1ccccn1)N1CCC(Oc2ncccc2Cl)CC1 | -2.05
42 | COc1ccc(F)cc1S(=O)(=O)N1CCC(Oc2ccc(Cl)cn2)CC1 | -3.49
43 | COc1ccccc1C(=O)N1CCC(Oc2ccc(C#N)cn2)CC1 | -2.18
44 | N#Cc1ccc(OC2CCN(C(=O)c3ccc(Br)o3)CC2)nc1 | 20.2
45 | Cc1noc(C)c1S(=O)(=O)N1CCC(Oc2cnccn2)CC1 | 11.2
46 | COC(=O)c1sccc1S(=O)(=O)N1CCC(Oc2cnccn2)CC1 | -7.44

Row | SMILES | cytotoxicity at 70.5 h [%]
47 | O=S(=O)(c1ccccc1F)N1CCC(Oc2cccnn2)CC1 | -7.73
48 | O=C(NCc1ccccc1)N1CCC(Oc2ncccc2Br)CC1 | -7.02
49 | Cc1nc(OCC(=O)N2CCCC2)cc(-n2cccn2)n1 | -7.15
50 | O=C(COc1ccc(-n2cccn2)nn1)N1CCCC1 | -2.51
51 | COc1ncc(NS(=O)(=O)c2ccc(F)cc2F)cn1 | -3.22
52 | Cc1cccc(C(=O)N2CCN(c3ccc(-n4cccc4)nn3)CC2)c1 | -7.5
53 | O=S(=O)(NCCNc1ccc(-n2cccc2)nn1)c1ccccc1 | -5.01
54 | O=S(=O)(Cc1ccccc1)NCCNc1ccc(-n2cccc2)nn1 | -13.6
55 | O=S(=O)(NCCNc1ccc(-n2cccc2)nn1)c1cccs1 | 3.82
56 | O=C(NCCNc1cc(-n2cccc2)ncn1)c1cccs1 | -4.09
57 | c1cncc(COCC2CN(Cc3ccco3)Cc3nccn3C2)c1 (stereo unspecified) | -9.74
58 | COCC1c2nnn(CC3CC3)c2CCN1C(=O)CS(C)(=O)=O (stereo unspecified) | -12.6
59 | COCC1c2nnn(CC3CC3)c2CCN1C(=O)C1CCOCC1 (stereo unspecified) | -11.4
60 | COCC1c2nnn(CC3CC3)c2CCN1C(=O)c1cnccn1 (stereo unspecified) | -13
61 | COCC1c2nnn(CC3CC3)c2CCN1C(=O)c1cc(C)[nH]c1C (stereo unspecified) | -9.95
62 | CS(=O)(=O)N1CCCC12CCCN(C(=O)c1cc(F)cc(F)c1)C2 (stereo unspecified) | -11.7
63 | COCC1c2nnn(CC3CC3)c2CCN1C(=O)c1ccncn1 (stereo unspecified) | 9.24
64 | Cc1nc(C)n(CC2CN(S(C)(=O)=O)Cc3nccn3C2)n1 (stereo unspecified) | 9.77
65 | CN(C)C(=O)c1cc2c(nc1NCC1CC1)CCNCC2 | 29.7
66 | Cc1cccc(C(=O)N2CCCn3cnc(CN4CCCC4=O)c3C2)n1 | 30.9
67 | Cc1noc(C2CCC3(CCN(C(=O)c4sccc4C)CC3)O2)n1 (stereo unspecified) | -4
68 | O=C(c1cccnc1)N1CCOCC2(CCN(c3ncccn3)C2)C1 (stereo unspecified) | -1.45
69 | CS(=O)(=O)N1CCc2ncc(CNC(=O)C3CCC3)n2CC1 | -1.87

Row | SMILES | cytotoxicity at 70.5 h [%]
70 | CC(C)CC(=O)N1CCCn2cnc(CNS(C)(=O)=O)c2C1 | 2.43
71 | COCCN1CCC2(CC1)COc1ccccc1S(=O)(=O)N(C)C2 | 2.33
72 | Cc1noc(C2CCC3(CCN(C(=O)c4ccn(C)n4)CC3)O2)n1 (stereo unspecified) | 10.4
73 | CCOC[C@H]1CC[C@H]2[C@H](CCN2C(=O)c2cnccn2)O1 | -4.15
74 | COC[C@H]1CC[C@H]2[C@H](CCN2C(=O)c2ccncc2F)O1 | -0.359
75 | CCOC[C@@H]1CC[C@H]2[C@H](CCN2C(=O)c2cnccn2)O1 | 2.78
76 | CCC(=O)N1CCC2(COCc3cnc(NCc4ccco4)nc32)C1 (stereo unspecified) | 0.523
77 | Cc1cccc(CN2C[C@@H]3CCCO[C@@H]3[C@H](Nc3ccccn3)C2)n1 | 1.63
78 | CCn1ncc2c1C(COC)CN(Cc1cnn(C)c1)C2 (stereo unspecified) | 8.92
79 | Cc1cc(CN2C[C@@H]3COC[C@]3(COCC(=O)N(C)C)C2)no1 | -4.13
80 | Cn1cccc1C(=O)N1CCc2ccc(=O)n(C)c2CC1 | -6.17
81 | CC(C)CNC(=O)[C@H]1CCS(=O)(=O)[C@@H]2CN(Cc3cccnc3)C[C@H]12 | -4.4
82 | Cc1ccccc1N1CC2(CCN(c3nncs3)C2)CC1=O (stereo unspecified) | -1.13
83 | CC(C)c1nn(C)c(N(C)C)c1CNCc1cccc2cccnc12 | 5.24
84 | Cc1ccc(CN2CCC3(CC(=O)N(c4cccc(F)c4)C3)C2)o1 (stereo unspecified) | -17.4
85 | O=C1CC2(CCN(CCO)C2)CN1c1cccc(F)c1 (stereo unspecified) | -10.9
86 | Cc1ncsc1CN1C[C@@H](OCC(=O)N(C)C)[C@H]2OCCC[C@H]21 | -11.1
87 | Cc1ccc(C(=O)N2CCc3ncnc(-c4cnn(C)c4)c3CC2)cn1 | -2.36
88 | O=C(NCC1CC1)[C@@H]1CC[C@@H]2[C@@H](CCN2Cc2ccco2)O1 | 1.26
89 | CN(C)C(=O)N1CCC2(CC1)CCN(c1ncccn1)C2 | 2.39
90 | Cc1oncc1C(=O)N1CCc2ncnc(-c3cnn(C)c3)c2CC1 | -1.31
91 | CNC(=O)c1ccc2c(c1)C1(CCN(C(C)C)CC1)C(=O)N2 | 2.6
92 | CN(C)C(=O)COC[C@]12COC[C@H]1CN(Cc1ccccc1)C2 | -2.22

Row | SMILES | cytotoxicity at 70.5 h [%]
93 | Cc1nc(CN2C[C@@H]3COC[C@]3(COCC(=O)N(C)C)C2)cs1 | -5.31
94 | CN(C)CCn1c2c(ccc1=O)CCN(C(=O)c1ccoc1)CC2 | -1.95
95 | Cc1ccoc1C(=O)N1CCc2ccc(=O)n(CCN(C)C)c2CC1 | -3.74
96 | CNC(=O)CN1CC[C@H]2CN(C(=O)c3cccc(C)c3)C[C@H]2C1 | -2.46
97 | COCCNC(=O)[C@H]1C[C@@H]2CCN(c3ncccn3)C[C@H]2O1 | -1.44
98 | CC(C)CNC(=O)[C@H]1CCS(=O)(=O)[C@@H]2CN(CC(C)C)C[C@H]12 | -1.81
99 | O=C1CC2(CCN(Cc3ccncc3)C2)CN1c1cccc(F)c1 (stereo unspecified) | -12.5
100 | COCCN1CCc2cc(C(=O)O)c(NCC3CC3)nc2CC1 | 22.8
101 | CN(C)CCOCC1CN(Cc2ccsc2)Cc2nnn(C)c21 (stereo unspecified) | 30.5
102 | CN(C)CCOCC1CN(Cc2ccc(F)cc2)Cc2nnn(C)c21 (stereo unspecified) | 2.45
103 | O=C(NCCc1ccccn1)[C@@H]1CC[C@@H]2[C@@H](CCN2Cc2ccoc2)O1 | 0.0992
104 | CCn1ncc2c1C(COC)CN(Cc1ccc(F)cc1)C2 (stereo unspecified) | 2.06
105 | Cc1cccc(CN2C[C@@H]3COC[C@]3(COCC(=O)N(C)C)C2)n1 | -3.44
106 | Cc1ncsc1CN1C[C@@H]2CCCO[C@@H]2[C@H](Nc2ccccn2)C1 | -4.96
107 | Cc1cccc(CN2CC3(CCN(Cc4ccco4)CC3)OCC2=O)n1 | -3.31
108 | c1cncc(C2COC3(CCN(Cc4cccs4)CC3)C2)c1 (stereo unspecified) | -6.54
109 | COc1ccc(CN2CCC3(CC2)CC(c2cccnc2)CO3)cc1 (stereo unspecified) | -6.67
110 | COCCn1cc2c(n1)C(CNCc1nccs1)OCC2 (stereo unspecified) | -2.52
111 | COCCO[C@H]1CCN(Cc2cccnc2)[C@H]1Cc1cccnc1 | 17.5
